# Measurements from US20260138958A1, “SUBSTITUTED N-PHENYLURACILS AND SALTS THEREOF, AND USE THEREOF AS HERBICIDAL ACTIVE SUBSTANCES” (Bayer Aktiengesellschaft, priority 2022, published 2026).
# How the values were obtained:
# Assay type in all cases: in vivo
# Lolium rigidum (LOLRI) = assay: Post-emergence herbicidal action, greenhouse pot test
# Method in brief: (§1)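 Weeds grown in sandy loam in the greenhouse and sprayed post-emergence at the one-leaf stage, 2–3 weeks after sowing. Compound applied as WP or EC in water with 0.5% additive at 600 l/ha. Damage rated visually about 3 weeks later against untreated controls (0% = like control, 100% = dead).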
# Bassia scoparia (KCHSC) = assay: as above
# Method in brief: as §1
# Viola tricolor (VIOTR) = assay: as above
# Method in brief: as §1
# [1] = system: Tripleurospermum inodorum (MATIN); assay: as above; settings: 20 g/ha
# Method in brief: as §1
# Setaria viridis (SETVI) = assay: as above
# Method in brief: as §1
# [2] = system: Echinochloa crus-galli (ECHCG); assay: as above
# Method in brief: as §1
# Veronica persica (VERPE) = assay: as above
# Method in brief: as §1
# [3] = system: Polygonum convolvulus (POLCO); assay: as above
# Method in brief: as §1
# [4] = system: Alopecurus myosuroides (ALOMY); assay: as above; settings: 20 g/ha
# Method in brief: as §1
# [5] = system: Abutilon theophrasti (ABUTH); assay: as above
# Method in brief: as §1
# [6] = system: Digitaria sanguinalis (DIGSA); assay: as above
# Method in brief: as §1
# [7] = system: Pharbitis purpurea (PHBPU); assay: as above
# Method in brief: as §1
# [8] = system: Amaranthus retroflexus (AMARE); assay: as above
# Method in brief: as §1
# Glycine max (GLXMA) = assay: Post-emergence crop plant compatibility, greenhouse pot test; settings: crop plant, post-emergence, 1.25 g/ha
# Method in brief: (§2)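 Visual % damage scores were taken roughly 3 weeks after treatment, relative to untreated plants, where 100% means plants died and 0% means no difference. Plants received aqueous sprays (WP or EC, 0.5% additive, 600 l/ha) on green parts at the one-leaf stage, 2–3 weeks after sowing.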
# [9] = system: Triticum aestivum (TRZAS); assay: as above; settings: crop plant, post-emergence, 1.25 g/ha
# Method in brief: as §2
structure (smiles),measurement,setting,value
CC(OC(=O)COc1ccccc1Oc1cc(-n2c(=O)cc(C(F)(F)F)n(C)c2=O)c(F)cc1Cl)C1CCCC1 (centres unmarked) [I.7-13],Post-emergence effect at 20 g/ha against LOLRI in %,Lolium rigidum (LOLRI),80%
same,Post-emergence effect at 5 g/ha against KCHSC in %,Bassia scoparia (KCHSC); 5 g/ha,100%
same,Post-emergence effect at 20 g/ha against KCHSC in %,Bassia scoparia (KCHSC); 20 g/ha,100%
same,Post-emergence effect at 1.25 g/ha against VIOTR in %,Viola tricolor (VIOTR); 1.25 g/ha,90%
same,Post-emergence effect at 5 g/ha against VIOTR in %,Viola tricolor (VIOTR); 5 g/ha,100%
same,Post-emergence effect at 20 g/ha against VIOTR in %,Viola tricolor (VIOTR); 20 g/ha,100%
same,Post-emergence effect at 20 g/ha against MATIN in %,[1],80%
same,Post-emergence effect at 1.25 g/ha against SETVI in %,Setaria viridis (SETVI); 1.25 g/ha,100%
same,Post-emergence effect at 5 g/ha against SETVI in %,Setaria viridis (SETVI); 5 g/ha,100%
same,Post-emergence effect at 20 g/ha against SETVI in %,Setaria viridis (SETVI); 20 g/ha,100%
same,Post-emergence effect at 1.25 g/ha against ECHCG in %,[2]; 1.25 g/ha,80%
same,Post-emergence effect at 5 g/ha against ECHCG in %,[2]; 5 g/ha,90%
same,Post-emergence effect at 20 g/ha against ECHCG in %,[2]; 20 g/ha,100%
same,Post-emergence effect at 1.25 g/ha against VERPE in %,Veronica persica (VERPE); 1.25 g/ha,100%
same,Post-emergence effect at 5 g/ha against VERPE in %,Veronica persica (VERPE); 5 g/ha,100%
same,Post-emergence effect at 20 g/ha against VERPE in %,Veronica persica (VERPE); 20 g/ha,100%
same,Post-emergence effect at 5 g/ha against POLCO in %,[3]; 5 g/ha,100%
same,Post-emergence effect at 20 g/ha against POLCO in %,[3]; 20 g/ha,100%
same,Post-emergence effect at 20 g/ha against ALOMY in %,[4],80%
same,Post-emergence effect at 1.25 g/ha against ABUTH in %,[5]; 1.25 g/ha,80%
same,Post-emergence effect at 5 g/ha against ABUTH in %,[5]; 5 g/ha,100%
same,Post-emergence effect at 20 g/ha against ABUTH in %,[5]; 20 g/ha,100%
same,Post-emergence effect at 5 g/ha against DIGSA in %,[6]; 5 g/ha,100%
same,Post-emergence effect at 20 g/ha against DIGSA in %,[6]; 20 g/ha,100%
same,Post-emergence effect at 1.25 g/ha against PHBPU in %,[7]; 1.25 g/ha,100%
same,Post-emergence effect at 5 g/ha against PHBPU in %,[7]; 5 g/ha,100%
same,Post-emergence effect at 20 g/ha against PHBPU in %,[7]; 20 g/ha,100%
same,Post-emergence effect at 1.25 g/ha against AMARE in %,[8]; 1.25 g/ha,100%
same,Post-emergence effect at 5 g/ha against AMARE in %,[8]; 5 g/ha,100%
same,Post-emergence effect at 20 g/ha against AMARE in %,[8]; 20 g/ha,100%
same,Post-emergence effect at 1.25 g/ha against GLXMA in %,Glycine max (GLXMA),20%
same,Post-emergence effect at 1.25 g/ha against TRZAS in %,[9],20%
